Experiments:
[1] = Asphyxic anoxemia (latency time for disappearance of the ECoG); assay type: in vivo, Sprague Dawley (Charles River) male rat; conditions: 10 mg/kg intravenous, 3 minutes before asphyxia; rat; read-out: % of variation of the latency time for disappearance of the ECoG after asphyxia
Experimental: The test is carried out using a Sprague Dawley (Charles River) male rat anaesthetized with ethyl ether, immobilized (tube curare 1 mg/kg I.V.) and artificially ventilated with air. The electrocorticogram (ECoG) and the arterial pressure are recorded. The rectal temperature is maintained at around 36° C. and the level of carbon dioxide in the blood is maintained between 35 and 40 torr. The products are administered at a dose of 10 mg/kg by intravenous route in a volume of 1 ml/kg 3 minutes before asphyxia obtained by stopping the artificial respiration. The latency time for the disappearance of the ECoG is measured.

[2] = Test for hypobar anoxemia in a mouse (survival time); assay type: in vivo; conditions: 10 mg/kg intraperitoneal, 60 minutes before the test; 600 mmHg depression; relative to control mice
Experimental: 3) Test for hypobar anoxemia in a mouse
This consists of measuring for a maximum duration of 3 minutes the survival time of mice placed in a 2 liter chamber in which a 600 mmHg depression is carried out. Mice deprived of food for 6 hours are used. The products are administered at a dose of 10 mg/kg by intraperitoneal route in a volume of 0.2 ml/10 g 60 minutes before the test.
The increase in survival time is noted, expressed as a percentage of the animals treated in relation to the control animals, submitted to the same conditions.

[3] = test system: adrenergic alpha2 receptors; test: Affinity for adrenergic alpha2 receptors (inhibition of specific 3H rauwolscine fixation, rat cortex); assay type: binding, rat (male; brain cortices); conditions: from CD (phentolamine) and CX (product) inhibiting 50% of specific fixation of 3H rauwolscine 0.15 nM, 25° C., 45 minutes
Experimental: 1) Affinity for adrenergic alpha2 receptors:
10 cortices removed from the brains of male rats weighing on average 150 g are homogenized in 90 ml of 0.32M sucrose. After centrifuging 1,000 g of the homogenized mixture for 10 minutes at 0° C., the supernatant is centrifuged at 30,000 g for 10 minutes at 0°/+4° C. The deposit is put in suspension in 240 ml of buffer TrisHCl 50 mM pH 7.7, and centrifuged at 30,000 g for 15 minutes at 0°/+4° C. The new deposit obtained is put in suspension in 480 ml of buffer NaKPO4 pH 7.4 50 mM.
2 ml of suspension is then incubated for 45 minutes at 25° C. in the presence of ^3 H rauwolscine at a 0.15 nM concentration:
ii) with increasing concentrations of the product under test or,
iii) in order to determine the non-specific fixation,
with non-radioactive phentolamine at a 10^-5 M concentration.
The incubated suspensions are filtered on Whatman GF/C and the filters are washed three times with 5 ml of buffer NaKPO4 pH 7.4 at 0° C. The radioactivity of the filters is measured by liquid scintillation.
The affinity of the product tested for adrenergic alpha2 receptors is given in relation to the phentolamine as a reference product.
CD=concentration of phentolamine inhibiting 50% of the specific fixation of ^3 H rauwolscine;
CX=concentration of the product under test inhibiting 50% of the specific fixation of ^3 H rauwolscine.
The relative affinity is given by the relation: [formula]

[4] = Anti-amnesic effect in a passive avoidance (electric shock treatment amnesia); assay type: in vivo; conditions: 2 mg/kg by oral route; rat
Source text: Anti-Amnesic Effect in a Passive Avoidance
Rats are placed individually in the lighted compartment of a box having two compartments, the other one being dark. They take refuge immediately in the dark compartment and upon their entry the rats receive an electric shock (1 mA/5 sec) from the grated floor. […] In the second group, the electric shock is immediately followed by the application of an amnesic electric shock treatment (60 mA, 0.6 ms, 0.6 s) (electric shock treatment control group). The third group is identical to the second, but the electric shock treatment is immediately followed by the administration of the compound under test (treated group). Twenty-four hours later, the animals are replaced in the lighted compartment of the box and the latency time of entry into the dark compartment is measured (up to 300 sec. maximum). For the controls, this time is close to 300 sec. The electric shock treatment controls on the other hand move into the dark compartment much more rapidly (amnesic effect).

[5] = Test for spontaneous alternation after septal cholinergic injury; assay type: in vivo; conditions: range of doses from 1 to 10 mg/kg i.p., 30 minutes before each session; rat
Source text: 4) Test for spontaneous alternation after septal cholinergic injury
The behaviour of spontaneous alternation is an essential characteristic of the behavioural performance of the rat, which, put in a situation of choice between a familiar stimulus and a new stimulus, will choose the latter. Thus, in the case of a labyrinth Y, the animal will preferably choose an arm which has not yet been explored as opposed to an arm that he has just visited (spontaneous alternation). This faculty of discrimination between the "familiar" and the "new" implies the coming into play of a form of memory, the Short Term Memory or Work Memory. The performances of spontaneous alternation allow therefore an evaluation of the capacity of this type of memory.
The method used consists of creating a mnesic deficit in the rat, by lesion of the septo-hippocampic cholinergic system, and of researching whether the product under test is capable of reversing this deficit. In the present case, this deficit is evaluated in a spontaneous alternation behaviour; the lesioned animal has alternation performances of about 50%, because it carries out its choices by chance.
Each experiment comprises a control-vehicle group, a lesioned-vehicle group and one or two lesioned groups receiving the product under test. […]

[6] = Test for anti-depressive activity (forced swimming, duration of immobility); assay type: in vivo, Sprague Dawley rats; conditions: ip, 5 min; i.p. 24, 5 and half an hour before the test; immobility over 5 minutes; rat; read-out: AD50 (the source's name)
Experimental: 5) Test for anti-depressive activity
The tests are carried out on groups of 5 Sprague Dawley rats. The unaffected animals are placed for 15 minutes in a vertical cylinder of plexiglass (diameter: 18 cm, height: 40 cm) containing water at 25° C. at a height of 15 cm (initial swimming test). They are then dried for 15 minutes in a chamber heated to 32° C.; 24 hours later, they are replaced in the cylinder, filled with water, and the total duration of the periods of immobility is measured over 5 minutes.
The compound is administered i.p. successively 24, 5 and half an hour before the test. The first administration takes place immediately after the initial swimming test, just before the animals are replaced in their breeding box.
The averages of the treated groups are compared with those of the control group using Dunnett's test.

SMILES | change in vivo at 10 mg/kg [1] | RAL (relative affinity, in relation to phentolamine as reference product) [3] | also measured
COc1ccc2c3c4n(c2c1)[C@@H](O)C[C@H]1CCCN(CC3)[C@H]41 (relative stereo) [Example 21, [(±) (14beta, 16alpha)]-14,15-dihydro-11-methoxy-20,21-dinoreburnamenin-14-ol] | 30% | – | –
O=[N+]([O-])c1ccc2c3c4n(c2c1)C=C[C@H]1CCCN(CC3)[C@H]41 (relative stereo) [Example 39, [(±) (16alpha)]-11-nitro-20,21-dinoreburnamenine] | – | – | % of increase in survival time [2]: 14%
Cc1ccc2c3c4n(c2c1)CC[C@H]1CCCN(CC3)[C@H]41 (relative stereo) [Example 12, [(±) (16alpha)]-14,15-dihydro-11-methyl-20,21-dinor-eburnamenine] | 18% | 39 | –
COc1ccc2c3c4n(c2c1)[C@H](O)C[C@H]1CCCN(CC3)[C@H]41 (relative stereo) [Example 22, [(±) (14alpha, 16alpha)]-14,15-dihydro-11-methoxy-20,21-dinoreburnamenin-14-ol] | 18% | – | –
COc1ccc2c(c1)c1c3n2[C@H](O)C[C@H]2CCCN(CC1)[C@H]32 (relative stereo) [Example 28, [(±) (14alpha, 16alpha)]-14,15-dihydro-10-methoxy-20,21-dinoreburnamenin-14-ol] | 35% | – | –
O=[N+]([O-])c1cccc2c1c1c3n2C=C[C@H]2CCCN(CC1)[C@H]32 (relative stereo) [Example 41, [(±) (16alpha)]-9-nitro-20,21-dinoreburnamenine] | – | – | % of increase in survival time [2]: 13%
COc1ccc2c3c4n(c2c1)C=C[C@H]1CCCN(CC3)[C@H]41 (relative stereo) [Example 24, [(±) 16alpha]-11-methoxy-20,21-norburnamenine] | 35% | – | –
Clc1ccc2c(c1)c1c3n2C=C[C@H]2CCCN(CC1)[C@H]32 (relative stereo) [Example 5, [(±) 16alpha]-10-chloro-20,21-dinoreburnamenine] | 26% | 55 | –
Cc1ccc2c3c4n(c2c1)C=C[C@H]1CCCN(CC3)[C@H]41 (relative stereo) [Example 10, [(±) (16alpha)]-11-methyl-20,21-dinoreburnamenine] | 47% | 160 | reversal of the effect of an electric shock treatment (passive avoidance) [4]: reverses the anti-amnesic effect of an electric shock treatment; reversal of the mnesic deficit caused by the septal cholinergic lesion (spontaneous alternation) [5]: reverses the mnesic deficit caused by the septal cholinergic lesion; ED50 [6]: 13 mg/kg
O=[N+]([O-])c1cccc2c1c1c3n2C(O)CC2CCCN(CC1)C32 (racemic) [Example 40, [(±) (16alpha)]-9-nitro-14,15dihydro-20,21-dinoreburnamenin-14-ol] | – | – | % of increase in survival time [2]: 22%
O[C@@H]1C[C@H]2CCCN3CCc4c(n1c1ccc(Cl)cc41)[C@H]23 (relative stereo) [Example 4, [(±) (14alpha, 16alpha)]-10-chloro-14,15-dihydro-20,21-dinoreburnamenin-14-ol] | – | 35 | –
Cc1ccc2c(c1)c1c3n2CC[C@H]2CCCN(CC1)[C@H]32 (relative stereo) [Example 18, [(±) (16alpha)]-14,15-dihydro-10-methyl-20,21-dinoreburnamenine] | – | 39 | –
COc1ccc2c(c1)c1c3n2C=C[C@H]2CCCN(CC1)[C@H]32 (relative stereo) [Example 29, [(±) (16alpha)]-10-methoxy-20,21-dinoreburnamenine] | 25% | – | –
Cc1ccc2c(c1)c1c3n2C=C[C@H]2CCCN(CC1)[C@H]32 (relative stereo) [Example 16, [(±) (16alpha)]-10-methyl-20,21-dinoreburnamenine] | 22% | 136 | –
Clc1ccc2c3c4n(c2c1)C=C[C@H]1CCCN(CC3)[C@H]41 (relative stereo) [Example 2, [(±) (16alpha)]-11-chloro-20,21-dinoreburnamenine] | 43% | 110 | –
Cc1ccc2c3c4n(c2c1)[C@H](O)C[C@H]1CCCN(CC3)[C@H]41 (relative stereo) [Example 8, [(±) (14alpha, 16alpha)]-14,15-dihydro-11-methyl-20,21-dinoreburnamenin-14-ol] | 37% | – | –
COc1ccc2c3c4n(c2c1)CC[C@H]1CCCN(CC3)[C@H]41 (relative stereo) [Example 25, [(±) (16alpha)]-14,15-dihydro-11-methoxy-20,21-dinoreburnamenine] | 20% | – | –

From US5093337A, “Substituted derivatives of 20,21-dinoreburnamenine, their use as medicaments and the pharmaceutical compositions containing them” (Roussel Uclaf, priority 1987, dated 1992)
